Assay results: US20230116114A1, “COMPOUNDS AND COMPOSITIONS FOR TREATING CNS DISORDERS” (Blue Oak Pharmaceuticals, Inc., priority 2020, published 2023)
Counter-ions that a name gives are not always drawn.

Tested on: mice
Assay: SmartCube in vivo neuropharmacological behavioral assay
Details: for minimal effective dose: Mus musculus, ip, 0.25 h, dose having 50% or more total activity in SmartCube, i.p., read-out: MED (minimal effective dose); for AD: antidepressant (percent probability) / AG: analgesic (percent probability) / AP: antipsychotic (percent probability) / AX: anxiolytic (percent probability) / CE: cognitive enhancer (percent probability) / HA: hallucinogenic (percent probability) / MS: mood stabilizer (percent probability) / PS (percent probability) / SD: sedative hypnotic (percent probability) / SE: side effects (percent probability) / UN: uncharacterized CNS activity (percent probability) / XG: anxiogenic (percent probability): SmartCube, i.p. 15 min before test, result at the MED
Protocol: The compounds were evaluated for their CNS related properties (e.g., the treatment, prevention or diagnosis of CNS or CNS-related disorders and/or amelioration of symptoms) using neuropharmacological screening methods described in S. L. Roberts et al., Front. Neurosci. 2011, 5:103 (hereinafter referred to as “Roberts,” the contents of which are incorporated herein by reference in their entirety).
According to Roberts, intact systems are useful in detecting improvement in disease-relevant endpoints, because psychiatric diseases generally result from disorders of cell-cell communication or circuitry. The endpoints are typically behavioral in nature, often requiring human observation and interpretation. In order to test multiple compounds for behavioral effects relevant to neurological and psychiatric diseases and disorders, PsychoGenics, Inc. (Paramus, N.J. “PGI”) developed SmartCube®, an automated system in which behaviors of compound-treated mice are captured by digital video and analyzed with computer algorithms to facilitate testing of multiple compounds for behavioral effects relevant to psychiatric disease. (D. Brunner et al., Drug Discov. Today 2002, 7:S107-S112; Alexandrov et al., Eur. J. Pharmacol. 2015, 753:127-134; the contents of each of which are incorporated herein by reference in their entirety).
The SmartCube® system is described in Example 2.2 of U.S. Pat. No. 9,758,529 and Example 289 of WIPO Publication No. WO2018/023070, the contents of each of which are incorporated herein by reference in their entirety.
According to the present disclosure, compounds identified may be evaluated using the SmartCube® system. The results of such analysis correlate certain patterns or combinations of behaviors to CNS effects along a percent probability scale of 0-100 where zero (0) reflects the limit of quantitation (LOQ).
The compounds of the present disclosure were evaluated for their CNS related properties (e.g., the treatment, prevention or diagnosis of CNS or CNS-related disorders and/or amelioration of symptoms) using neuropharmacological screening methods described in S. L. Roberts et al., Front. Neurosci. 2011, 5:103 (hereinafter referred to as “Roberts,” the contents of which are incorporated herein by reference in their entirety).
The SmartCube® system described herein was utilized to compare the behavioral signature of a test compound to a database of behavioral signatures obtained using a large set of diverse reference compounds (including but not limited to antipsychotics, anxiolytics, antidepressants and bipolar disorder medicine), thereby predicting the neuropharmacological effects of a test compound by similarity to major classes of compounds. It produces an activity signature indicating the probability that the activity of the test compound at the administered dose matches a given class of neuropharmacological agents. The test compound is simultaneously compared against multiple classes of agents; thus, a separate probability is generated for each behavioral effect measured (such as but not limited to anxiolytic activity and analgesic activity).
The compounds of the present disclosure were dissolved in a mixture of Pharmasolve™ (N-methyl-2-pyrrolidone (NMP)) and were injected i.p. 15 min. before the behavioral test. For each compound, injections were administered at different dose levels (e.g., 0.3, 1, 3, 10 and 30 mg per kg (mpk)). A compound's minimal effective dose (MED; see Table 3) is a measure of the compound's potency. The MED was defined as the dose (in mpk) having 50% or more total activity in SmartCube®. For each behavioral effect measured, results at the MED are presented. CNS activities of the compounds were recorded (see Table 2). In Table 1, a key to the percent probabilities (probability ×100) for each behavioral effect (“X”) are defined provided, where LOQ is the limit of quantification.

| SMILES | minimal effective dose [mg/kg] | AD: antidepressant (percent probability) | AG: analgesic (percent probability) | AP: antipsychotic (percent probability) | AX: anxiolytic (percent probability) | CE: cognitive enhancer (percent probability) | HA: hallucinogenic (percent probability) | MS: mood stabilizer (percent probability) | PS (percent probability) | SD: sedative hypnotic (percent probability) | SE: side effects (percent probability) | UN: uncharacterized CNS activity (percent probability) | XG: anxiogenic (percent probability) |
| --- | --- | --- | --- | --- | --- | --- | --- | --- | --- | --- | --- | --- | --- |
| FCC(CF)N1C2CCCC1c1ccccc12 [Compound 14, 12-(1,3-Difluoropropan-2-yl)-12-azatricyclo[6.3.1.0^20.7]dodeca-2,4,6-triene hydrochloride] | 10 to 30 | ++ (5% ≤ X < 25%) | +++ (25% ≤ X < 50%) | + (LOQ ≤ X < 5%) | ++ (5% ≤ X < 25%) | + (LOQ ≤ X < 5%) | + (LOQ ≤ X < 5%) | + (LOQ ≤ X < 5%) | + (LOQ ≤ X < 5%) | + (LOQ ≤ X < 5%) | + (LOQ ≤ X < 5%) | + (LOQ ≤ X < 5%) | + (LOQ ≤ X < 5%) |
| CC[C@@H](C)N1C2CCCC1c1ccccc12 [Compound 25, 12-[(2R)-Butan-2-yl]-12-azatricyclo[6.3.1.0^2,7]dodeca-2,4,6-triene hydrochloride] | 1 to 10 | ++++ (50% ≤ X < 100%) | + (LOQ ≤ X < 5%) | + (LOQ ≤ X < 5%) | + (LOQ ≤ X < 5%) | + (LOQ ≤ X < 5%) | + (LOQ ≤ X < 5%) | + (LOQ ≤ X < 5%) | ++ (5% ≤ X < 25%) | + (LOQ ≤ X < 5%) | + (LOQ ≤ X < 5%) | + (LOQ ≤ X < 5%) | + (LOQ ≤ X < 5%) |
| CC(C)N1C2CCC(O)C1c1ccccc12 (stereo not drawn) [Compound 27, 12-(propan-2-yl)-12-azatricyclo[6.3.1.0^2,7]dodeca-2,4,6-trien-9-ol hydrochloride] | 10 to 30 | +++ (25% ≤ X < 50%) | ++ (5% ≤ X < 25%) | + (LOQ ≤ X < 5%) | ++ (5% ≤ X < 25%) | + (LOQ ≤ X < 5%) | ++ (5% ≤ X < 25%) | + (LOQ ≤ X < 5%) | ++ (5% ≤ X < 25%) | + (LOQ ≤ X < 5%) | + (LOQ ≤ X < 5%) | + (LOQ ≤ X < 5%) | + (LOQ ≤ X < 5%) |
| CC(C)N1C2CC[C@H](C)C1c1ccccc12 (stereo in doubt) [Compound 33, 9-Methyl-12-(propan-2-yl)-12-azatricyclo[6.3.1.0^2,7]dodeca-2,4,6-triene hydrochloride] | 1 to 10 | ++++ (50% ≤ X < 100%) | + (LOQ ≤ X < 5%) | + (LOQ ≤ X < 5%) | + (LOQ ≤ X < 5%) | + (LOQ ≤ X < 5%) | + (LOQ ≤ X < 5%) | + (LOQ ≤ X < 5%) | + (LOQ ≤ X < 5%) | + (LOQ ≤ X < 5%) | + (LOQ ≤ X < 5%) | + (LOQ ≤ X < 5%) | + (LOQ ≤ X < 5%) |
| CC(C)N1C2CCC(F)C1c1ccccc12 (stereo not drawn) [Compound 35, 9-Fluoro-12-(propan-2-yl)-12-azatricyclo[6.3.1.0^2,7]dodeca-2,4,6-triene hydrochloride] | > 30 | + (LOQ ≤ X < 5%) | ++ (5% ≤ X < 25%) | + (LOQ ≤ X < 5%) | ++ (5% ≤ X < 25%) | + (LOQ ≤ X < 5%) | + (LOQ ≤ X < 5%) | + (LOQ ≤ X < 5%) | + (LOQ ≤ X < 5%) | + (LOQ ≤ X < 5%) | + (LOQ ≤ X < 5%) | + (LOQ ≤ X < 5%) | + (LOQ ≤ X < 5%) |
| COCC(C)N1C2CCCC1c1ccccc12 (stereo not drawn) [Compound 18, 12-(1-Methoxypropan-2-yl)-12-azatricyclo[6.3.1.0^2,7]dodeca-2,4,6-triene] | 10 to 30 | ++++ (50% ≤ X < 100%) | + (LOQ ≤ X < 5%) | + (LOQ ≤ X < 5%) | ++ (5% ≤ X < 25%) | + (LOQ ≤ X < 5%) | + (LOQ ≤ X < 5%) | + (LOQ ≤ X < 5%) | + (LOQ ≤ X < 5%) | + (LOQ ≤ X < 5%) | + (LOQ ≤ X < 5%) | + (LOQ ≤ X < 5%) | + (LOQ ≤ X < 5%) |
| CC(C)N1[C@@H]2C[C@@H](C)C[C@H]1c1ccccc12 [Compound 31, 10-Methyl-12-(propan-2-yl)-12-azatricyclo[6.3.1.0^2,7]dodeca-2,4,6-triene hydrochloride] | 1 to 10 | ++++ (50% ≤ X < 100%) | + (LOQ ≤ X < 5%) | + (LOQ ≤ X < 5%) | + (LOQ ≤ X < 5%) | + (LOQ ≤ X < 5%) | ++ (5% ≤ X < 25%) | + (LOQ ≤ X < 5%) | ++ (5% ≤ X < 25%) | + (LOQ ≤ X < 5%) | + (LOQ ≤ X < 5%) | + (LOQ ≤ X < 5%) | + (LOQ ≤ X < 5%) |
| CO[C@@H]1CC[C@H]2c3ccccc3[C@@H]1N2C(C)C (stereo in doubt) [Compound 34, 9-Methoxy-12-(propan-2-yl)-12-azatricyclo[6.3.1.0^2,7]dodeca-2,4,6-triene hydrochloride] | 10 to 30 | ++ (5% ≤ X < 25%) | + (LOQ ≤ X < 5%) | + (LOQ ≤ X < 5%) | ++ (5% ≤ X < 25%) | + (LOQ ≤ X < 5%) | + (LOQ ≤ X < 5%) | + (LOQ ≤ X < 5%) | + (LOQ ≤ X < 5%) | + (LOQ ≤ X < 5%) | + (LOQ ≤ X < 5%) | ++ (5% ≤ X < 25%) | + (LOQ ≤ X < 5%) |
| CCC(C)N1C2CC(C)CC1c1ccccc12 (stereo not drawn) [Compound 37, 12-(Butan-2-yl)-10-methyl-12-azatricyclo[6.3.1.0^2,7]dodeca-2,4,6-triene hydrochloride] | 1 to 10 | ++ (5% ≤ X < 25%) | ++ (5% ≤ X < 25%) | + (LOQ ≤ X < 5%) | +++ (25% ≤ X < 50%) | + (LOQ ≤ X < 5%) | + (LOQ ≤ X < 5%) | + (LOQ ≤ X < 5%) | ++ (5% ≤ X < 25%) | + (LOQ ≤ X < 5%) | + (LOQ ≤ X < 5%) | + (LOQ ≤ X < 5%) | + (LOQ ≤ X < 5%) |
